We go through one compound from patent US20110104159A1, “COMPOSITIONS AND METHODS FOR TREATING, CONTROLLING, REDUCING, AMELIORATING, OR PREVENTING ALLERGY” (priority 2006, published 2011).

The test system of one data set is annexin I. Kind of data set: Annexin I surface expression in human eosinophils (FACS), transactivation marker. Type of data set: cell-based. The settings on record: 10 000 nM. How it is done: FACS was performed to measure cell surface expression of annexin I and CXCR4 as indicators of glucocorticoid-mediated transactivation. Human eosinophils were double-stained with a red dye-conjugated secondary antibody to trace changes in the expression of CXCR4 or I, and a green dye-conjugated annexin V to exclude apoptotic cells from the analysis. The cells were counted and transferred to a 24-well plate (10^6 cells/well) and serum-starved (0.1% FBS) for 24 h.
At the end of the incubation, the cells were harvested and each sample was divided into two tubes to run parallel tests for annexin I and CXCR4 surface expression. After rinsing all samples with a HBSS solution containing 1% BSA, the cells were incubated for 45 min on a shaker with anti-annexin I or anti-CXCR4 antibodies (1:200) on ice; the negative control was incubated with an isotype-specific control antibody.
The cells were then washed twice with HBSS/BSA buffer before exposure to the Alexa Fluor® 568-conjugated secondary antibody. The excess of unbound antibody was washed away, and all samples were incubated for 15 min in the presence of annexin V-Fluos. […] Electronic gates were set on annexin V-negative cells and CXCR4 or annexin I-positive cells. Data from 10,000 cells/sample were analyzed using dedicated software (Becton, Dickinson and Company). The % of CXCR4 or annexin I positive cells was calculated.

A further data set relates to human eosinophils. Kind of data set: Ionomycin-induced IL-8 secretion in human eosinophils (ELISA). The note with it: Eosinophil, compound 45 min before ionomycin, supernatant after 18 h, read-out: IC50, IL-8 release induced by ionomycin in eosinophils. Type of data set: cell-based. How it is done: After 18 h stimulation at 37° C. in a 5% CO2 atmosphere, Interleukin-8 (IL-8) was measured in supernatants obtained from […] with a commercial ELISA kit from R&D Systems. The threshold sensitivity was 5 pg/ml and the inter- and intra-assay variations were less than 5%. The supernatants obtained from HMC-1 cells were aliquoted in duplicates for interleukin-6 (IL-6), IL-8, chemokine (C-C motif) ligand 5 (CCL5)/regulated upon activation, normal T-cell expressed and secreted (RANTES) and tumor necrosis factor-α (TNF-α) analysis using a high-throughput multiplex Luminex technology (Luminex 200 System; Luminex, Austin, Tx, USA) and Beadview software version 1.0 (Upstate Cell Signaling Solutions, Temecula, Calif.). Standard curves for known concentrations of recombinant human cytokines were used to convert median fluorescence intensities to cytokine concentrations in pg/ml. Only the linear portions of the standard curves were used to quantify cytokine concentrations, and in instances where the fluorescence reading exceeded the linear range of the standard curve, an appropriate dilution was performed to ensure that the concentration was in the linear portion of the curve.
On the technique in general: ELISA stands for enzyme-linked immunosorbent assay.

The test system of data set [1] is peripheral human blood eosinophils. Kind of data set: Spontaneous eosinophil apoptosis (annexin V/PI flow cytometry). (Flow cytometry measures light scatter and fluorescence of single cells or particles in a stream.)
Procedure: To assess glucocorticoid-induced apoptosis, cells were double-stained with annexin V-Fluos and propidium iodide (PI). Annexin V-Fluos was used according to the manufacturer's instructions.
The suspension was incubated at room temperature for 10 min and analyzed in the BD FACS Canto II flow cytometry system (Becton, Dickinson and Company, New Jersey, USA). Eosinophils and EoL-1 cells were gated on the basis of their forward and side light scatter, with cell debris excluded from analysis. Apoptotic cells were defined as annexin V^+/PI^− cells. A two-way dot plot was prepared to verify the percentage of apoptotic cells. Annexin V^−/PI^− cells were used as control and annexin V^+/PI^+ cells were considered necrotic.
All data are expressed as mean±S.E.M. for the number of experiments indicated. Statistical comparisons were made by ANOVA and post-hoc Newman-Keuls test with differences of P<0.05 considered significant.
Data set [2] deals with human glucocorticoid receptor (Homo sapiens, UniProt P04150). The note with it: Schacke et al. [26]; cited from earlier work.
Sequence of human glucocorticoid receptor (P04150 whole entry): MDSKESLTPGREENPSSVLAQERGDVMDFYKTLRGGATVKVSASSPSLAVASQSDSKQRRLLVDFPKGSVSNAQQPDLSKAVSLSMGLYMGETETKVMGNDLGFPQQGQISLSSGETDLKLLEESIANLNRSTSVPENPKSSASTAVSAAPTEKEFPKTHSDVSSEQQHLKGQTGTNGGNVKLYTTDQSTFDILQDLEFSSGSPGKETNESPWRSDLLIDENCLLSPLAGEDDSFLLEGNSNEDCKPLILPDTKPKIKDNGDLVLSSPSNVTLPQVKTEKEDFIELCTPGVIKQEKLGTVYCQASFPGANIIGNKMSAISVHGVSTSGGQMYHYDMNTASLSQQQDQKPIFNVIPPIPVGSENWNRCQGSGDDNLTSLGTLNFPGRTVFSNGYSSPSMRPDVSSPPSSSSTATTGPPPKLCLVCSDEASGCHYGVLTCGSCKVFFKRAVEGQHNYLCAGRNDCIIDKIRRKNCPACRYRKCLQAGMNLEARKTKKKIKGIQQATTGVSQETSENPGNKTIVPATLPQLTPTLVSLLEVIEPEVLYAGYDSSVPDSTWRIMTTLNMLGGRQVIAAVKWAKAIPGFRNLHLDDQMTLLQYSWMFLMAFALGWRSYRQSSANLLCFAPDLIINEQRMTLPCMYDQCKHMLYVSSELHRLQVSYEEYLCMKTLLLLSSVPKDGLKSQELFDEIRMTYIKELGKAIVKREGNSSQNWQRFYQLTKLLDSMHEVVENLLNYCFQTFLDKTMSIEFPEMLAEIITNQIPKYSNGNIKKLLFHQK
A further data set relates to eosinophil peroxidase. Kind of data set: Eosinophil peroxidase assay in guinea pig conjunctiva. Type of data set: in vivo. The note with it: 0.4% eye drops; 24 h after antigen challenge. The method, then:
Male Dunkin-Hartley guinea pigs were actively immunized by i.p. injection of 200 μg OVA in 2 ml saline with 40 mg aluminum hydroxide (positive control) or saline alone (negative control), as previously reported. […] Negative controls received saline alone.
Conjunctival clinical symptoms were rated blind on both eyes using the following scale: 0, no symptoms; 1, slight conjunctival redness with or without tears; 2, mild conjunctival redness with tears and mild chemosis; 3, mild conjunctival redness with tears and moderate chemosis; 4, severe conjunctival redness with tears and partial lid eversion; 5, severe conjunctival redness with tears and lids more than half closed. […] The number of eosinophils in each field was counted under light microscopy (×500 magnification). In the other sample eosinophil peroxidase activity was measured.
Eosinophil peroxidase was assayed as previously reported in conjunctival samples obtained as above described. […] Absorbance was measured using a spectrophotometer (JASCO V-530, Jasco, UK) at 490 nm. […] Eosinophil peroxidase activity was measured according to the method of Strath et al., which is based on the oxidation of o-phenylenediamine by eosinophil peroxidase in the presence of hydrogen peroxide. One unit corresponds to 1 mmol of hydrogen peroxide decomposed for […], and the results were expressed as eosinophil peroxidase levels (mU of enzyme/mg wet tissue).

With `Cc1ccc2c(NC[C@](O)(CC(C)(C)c3cc(F)cc4c3OCC4)C(F)(F)F)cccc2n1` [BOL-303242-X, (R)-1,1,1-Trifluoro-4-(5-fluoro-2,3-dihydrobenzofuran-7-yl)-4-methyl-2-{[(2-methyl-5-quinolyl)amino]methyl}pentan-2-ol], the “Induction of annexin I expression on the eosinophil cell surface” value in the data set with annexin I is reported as “partially effective only at the highest concentration”. In the data set with human eosinophils, the IC50 is 10.7 nM. Besides, the “Eosinophil apoptosis after 24 h exposure” value in data set [1] (24 h, 0.1% FBS, 100 and 1000 nM, data not shown) is recorded as “lower but significant apoptosis”. In addition, in data set [1] (48 h, 5000 nM, mean±SEM, n=12, p>0.05 vs without compound (34±10%)), the “Percentage of annexin-V+/PI+ (necrotic) peripheral blood eosinophils” value was 25±9%. In data set [1] (48 h, 0.1% FBS, no GM-CSF/IL-5, 1-5000 nM), the “Efficacy, enhancement of spontaneous eosinophil apoptosis” value amounted to 90%. The EC50 in data set [1] (read-out: EC50, enhancement of spontaneous eosinophil apoptosis, 48 h, 0.1% FBS, no GM-CSF/IL-5, 1-5000 nM) was 456 nM. In addition, the “Binding to the human glucocorticoid receptor” value in data set [2] was “high affinity and selectivity”. Further, the “Conjunctival eosinophil peroxidase activity” value in the data set on eosinophil peroxidase is “noteworthy reduction”.

Usually IC50 stands for the concentration that inhibits the measured activity by half. Broadly, the EC50 is the concentration that produces a half-maximal response.
